18 molecules from US10233180B2, “Substituted nitrogen-containing heterocyclic derivatives, pharmaceutical compositions comprising the same and applications of antitumor thereof” (ZHEJIANG UNIVERSITY, priority 2014, dated 2019) can be followed below.

The term IC50 denotes the midpoint of a concentration-inhibition curve.

In assay [1] the target is T1, Akt1 (Homo sapiens, UniProt P31749).
T1 construct: purchased 32-021
The experiment in a line: AKT1/PKBα KinEASE FP Fluorescein Green Assay (fluorescence polarization kinase kit). It counts as biochemical. As to conditions: 1 h reaction, read-out: Inhibitory activities against Akt1 (IC50). On the procedure: Second, method for determining the inhibitory activities of substituted nitrogen-containing heterocyclic derivatives in the present invention against Akt1 enzyme:
The inhibitory activities of compounds against AKT1/PKBα are determined by using AKT1/PKBα KinEASE™ FP Fluorescein Green Assay (Green fluorescence detection system of Kinase).
Principle adopted by the fluorescence polarization detection of protein kinase B is a competitive reaction: the phosphorylated tracers labeled with fluorescence will compete with unlabeled phosphorylated products produced by reacting with protein kinase B to combine anti-serine antibodies. […] However, in the reaction mixture containing phosphorylated products, fewer tracers will combine with antibodies (fluorescent tracers are replaced from the antibodies), and signals sent our occur depolarizing. Therefore, the change of polarization is directly related to the activity of protein kinase B in the reaction.
Each of 0.25 μl of compounds with a concentration of 50 μM and the positive control are added to a 384-well plate at room temperature, and each sample is provided with three parallel wells, and then 10 μl of STK Substrate 3 Working Solution, 5 μl of AKT1/PKBα Working Solution, 10 μl of ATP Working Solution are added to each sample respectively, the mixtures are slightly vibrated and shaked for a few minutes. Reaction is carried out just after the adding 10 μl of ATP Working Solution, from this time, reacting for 1 h. After 1 h, 5 μl of STK Stop Mix and 5 μl of STK Antibody Mix are added to each sample respectively to stop the reaction. The samples are maintained for 4 h at room temperature after adding is completed, the polarization values of samples are determined by fluorescence polarization of Microplate Reader (Detection of the signals is valid within 24 h), the inhibitory rate of compounds against the enzyme is calculated by polarization value, and thereby IC50 is calculated.
Experiment is set up four control groups at the same time, which are Buffer Control Wells, Tracer Control Wells, No Enzyme Wells and blank control of dimethyl sulfoxide, respectively. Thus obtained data are used to calculate the inhibitory rate (the preparation methods of above various solution required for determining the activities of compounds against enzyme refer to the specification of the kit of AKT1/PKBα KinEASE™ FP Fluorescein Green Assay Catalog #32-021).
(Polarisation of emitted light reports the rotation of a fluorescent probe.)

The test system of assay [2] is human colon cancer cell strain HCT-116. As to the kind of experiment: MTT assay, inhibition of tumor cell growth in vitro, 72 h. The assay is classed as cell-based. As to conditions: Homo sapiens, HCT-116, MTT, read-out: Antitumor proliferative activities of tumor cell (IC50, μM) HCT-116 (converted). On the procedure: (§1) First, inhibitory activity on tumor proliferation in vitro is determined and the structure activity relationship is preliminarily studied, in which different solid tumor cell strains are selected for determining the antitumor activities in vitro of the synthesized compounds.
(§2) Cell strains: Human ovarian cancer cell strain (OVCAR8), colon adenocarcinoma cell strain (HCT-116)
HCT-116: RPMI 1640+Fetal Bovine Serum
(§3) Preparing method of medicines: Dissolving the medicine in DMSO to make a 50 mM stock solution, and diluting it according to a certain ratio to obtain 5 different concentrations.
(§4) Two selected tumor cells OVCAR8 and HCT-116 are incubated at 37° C. in a 5% CO2 incubator, which are subcultured when cells grow up to a density of 70˜90% (adherent cells are subcultured after digesting by Duck's EDTA) for later experiments.
(§5) Compounds are dissolved and diluted by dimethyl sulfoxide (DMSO), and tumor cells OVCAR8 and HCT-116 are seeded in a 96-well plate at a density of 4000 cells/200 μl/well, 1 μl of the compounds are added to each well with the final concentration of 50 μM, 10 μM, 2 μM, 0.4 μM and 0.08 μM, which is incubated for 72 h at 37° C. in a 5% CO2 incubator with DMSO (1%) as blank control.
(§6) The calculating formula of cell inhibitory rate is: cell inhibitory rate %=(the OD value of the control group−the OD value of the medication group)/the OD value of the control group×100%, the half maximal inhibitory concentration (IC50) is obtained by Bliss method.
For orientation: Tetrazolium dyes change colour on reduction, which living cells bring about.

Assay [3] deals with Human ovarian cancer cell strain OVCAR-8. The description is as above. The assay is classed as cell-based. As to conditions: Homo sapiens, OVCAR-8, MTT, read-out: Antitumor proliferative activities of tumor cell (IC50, μM) OVCAR-8. On the procedure:
as §1, §2
Medium: OVCAR8: RPMI 1640+Fetal Bovine Serum
as §3, §4, §5, §6

T1 sequence (P31749 whole entry): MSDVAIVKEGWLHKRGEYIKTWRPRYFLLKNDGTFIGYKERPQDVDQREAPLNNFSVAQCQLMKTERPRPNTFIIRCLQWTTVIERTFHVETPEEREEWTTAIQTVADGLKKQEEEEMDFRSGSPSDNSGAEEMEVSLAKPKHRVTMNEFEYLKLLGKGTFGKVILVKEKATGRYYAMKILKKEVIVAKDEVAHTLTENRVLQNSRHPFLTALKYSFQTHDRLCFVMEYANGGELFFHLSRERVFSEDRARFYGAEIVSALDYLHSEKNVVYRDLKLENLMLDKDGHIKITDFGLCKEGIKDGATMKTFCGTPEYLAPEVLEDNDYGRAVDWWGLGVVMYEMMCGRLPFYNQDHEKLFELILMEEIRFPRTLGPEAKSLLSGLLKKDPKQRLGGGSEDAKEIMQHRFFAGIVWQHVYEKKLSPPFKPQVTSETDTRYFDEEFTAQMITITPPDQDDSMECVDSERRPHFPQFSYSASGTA

For the molecule `Cn1ncc(Br)c1-c1csc(C(=O)N[C@H]2CNCC[C@@H]2c2ccc(F)c(F)c2)c1` (racemic) [Compound 38, 4-(4-bromo-1-methyl-1H-pyrazol-5-yl)-N-(3,4-trans-4-(3,4-difluorophenyl)piperidin-3-yl)thiophene-2-formamide], the half-inhibitory concentration (IC50) is 409 nM in assay [1], 1.94 µM in assay [2] and 4.69 µM in assay [3].

As to `Cc1cnn(C)c1-c1cnc(C(=O)N[C@H]2CNCC[C@@H]2c2ccc(F)c(F)c2)cc1F` (racemic) [Compound 46, 4-fluoro-5-(1,4-dimethyl-1H-pyrazol-5-yl)-N-(3,4-trans-4-(3,4-difluorophenyl)piperidin-3-yl)pyridinyl-2-formamide], the IC50 in assay [1] is 348 nM; in assay [2], 23.8 µM; in assay [3], 7.94 µM.

Turning to `CCc1cnn(C)c1-c1cc(C(=O)N[C@H]2CNCC[C@@H]2c2ccc(Cl)cc2)nc(C)n1` (racemic) [Compound 47, 2-methyl-6-(1-methyl-4-ethyl-1H-pyrazol-5-yl)-N-(3,4-trans-4-(4-chlorophenyl)piperidin-3-yl)pyrimidine-4-formamide], the IC50 is 216 nM in assay [1], 3.11 µM in assay [2] and 5.57 µM in assay [3].

On to `Cc1nc(C(=O)N[C@H]2CNCC[C@@H]2c2ccc(F)c(F)c2)ncc1-c1c(Cl)cnn1C` (racemic) [Compound 52, 4-methyl-5-(4-chloro-1-methyl-1H-pyrazol-5-yl)-N-(3,4-trans-4-(3,4-difluorophenyl)piperidin-3-yl)pyrimidine-2-formamide], for which the IC50 in assay [1] is 72 nM; in assay [2] it was 2.05 µM; in assay [3] it was 1.06 µM.

As for `CCc1cnn(C)c1-c1cccc(C(=O)N[C@H]2CNCC[C@@H]2c2ccc(Cl)cc2)c1Cl` (racemic) [Compound 53, 2-chloro-3-(4-ethyl-1-methyl-1H-pyrazol-5-yl)-N-(3,4-trans-4-(4-chlorophenyl)piperidin-3-yl)phenyl formamide], the IC50 was 29 nM in assay [1], 2.66 µM in assay [2] and 4.69 µM in assay [3].

On to `CCCc1cc(C(=O)N[C@H]2CNCC[C@@H]2c2cc(OC)cc(OC)c2)ccc1-c1c(Br)cnn1C` (racemic) [Compound 54, 3-n-propyl-4-(4-bromo-1-methyl-1H-pyrazol-5-yl)-N-(3,4-trans-4-(3,5-dimethoxyphenyl)piperidin-3-yl)phenyl formamide], for which the IC50 in assay [1] is 678 nM; in assay [2] it was 3.14 µM; in assay [3], 13.3 µM.

Regarding `Cc1cccc([C@H]2CCNC[C@@H]2NC(=O)c2cc(C)c(-c3c(Br)cnn3C)cc2C)c1` (racemic) [Compound 57, 2,5-dimethyl-4-(4-bromo-1-methyl-1H-pyrazol-5-yl)-N-(3,4-trans-4-(3-methylphenyl)piperidin-3-yl)phenyl formamide], the IC50 in assay [1] is 82 nM; in assay [2], 2.5 µM; in assay [3], 12.9 µM.

With `Cc1nc(C(=O)N[C@H]2CNCC[C@@H]2c2ccncc2)ccc1-c1c(Br)cnn1C` (racemic) [Compound 58, 6-methyl-5-(4-bromo-1-methyl-1H-pyrazol-5-yl)-N-(3,4-trans-4-(pyridinyl-4-yl)piperidin-3-yl)pyridinyl-2-formamide], the IC50 was 52 nM in assay [1], 15.8 µM in assay [2] and 3.68 µM in assay [3].

For `Cc1cnn(C)c1-c1cnc(C(=O)N[C@H]2CNCC[C@@H]2c2ccc[nH]2)nc1C` (racemic) [Compound 60, 4-methyl-5-(1,4-dimethyl-1-methyl-1H-pyrazol-5-yl)-N-(3,4-trans-4-(pyrrole-2-yl)piperidins-3-yl)pyrimidine-2-formamide], the IC50 in assay [1] is 972 nM; in assay [2], 2.27 µM; in assay [3], 6.01 µM.

As to `Cn1ncc(Cl)c1-c1coc(C(=O)N[C@H]2CNC[C@@H]2c2ccc(F)c(F)c2)c1` (racemic) [Compound 66], the IC50 was 345 nM in assay [1], 3.22 µM in assay [2] and 3.48 µM in assay [3].

Take `Cn1ncc(Br)c1-c1coc(C(=O)N[C@H]2CNC[C@@H]2c2ccc(C(F)(F)F)cc2)c1` (racemic) [Compound 67, 4-(4-bromo-1-methyl-1H-pyrazol-5-yl)-N-(3,4-trans-4-(4-trifluoromethylphenyl)pyrrolidin-3-yl)furan-2-formamide]: the IC50 was 272 nM in assay [1], 20.4 µM in assay [2] and 10.6 µM in assay [3].

In the case of `Cn1ncc(Br)c1-c1coc(C(=O)N[C@H]2CNC[C@@H]2c2ccc(F)c(F)c2)c1` (racemic) [Compound 68, 4-(4-bromo-1-methyl-1H-pyrazol-5-yl)-N-(3,4-trans-4-(3,4-difluorophenyl)pyrrolidin-3-yl)furan-2-formamide], the 50% inhibitory concentration (IC50) in assay [1] was 679 nM; in assay [2], 2.84 µM; in assay [3] it was 4.19 µM.

For `Cn1ncc(Cl)c1-c1cc(C(=O)N[C@H]2CNC[C@@H]2c2ccc(C(F)(F)F)cc2)oc1Cl` (racemic) [Compound 69, 5-chloro-4-(4-chloro-1-methyl-1H-pyrazol-5-yl)-N-(3,4-trans-4-(4-trifluoromethylphenyl)pyrrolidin-3-yl)furan-2-formamide], the values for the IC50 in assay [1], in assay [2] and in assay [3] were 323 nM, 3.04 µM and 24.3 µM, respectively.

On to `Cc1cnn(C)c1-c1cnc(C(=O)N[C@H]2CNC[C@@H]2c2ccc(F)c(F)c2)cc1F` (racemic) [Compound 70, 4-fluoro-5-(1,4-dimethyl-1H-pyrazol-5-yl)-N-(3,4-trans-4-(3,4-difluorophenyl)pyrrolidin-3-yl)pyridinyl-2-formamide], for which the IC50 in assay [1] is 87 nM; in assay [2], 10.3 µM; in assay [3], 2.69 µM.

For the molecule `Cc1cnn(C)c1-c1cnc(C(=O)N[C@H]2CNC[C@@H]2c2ccc(C(F)(F)F)cc2)cc1F` (racemic) [Compound 71, 4-fluoro-5-(1,4-dimethyl-1H-pyrazol-5-yl)-N-(3,4-trans-4-(4-trifluoromethylphenyl)pyrrolidin-3-yl)pyridinyl-2-formamide], the figures for the IC50 in assay [1], in assay [2] and in assay [3] were 116 nM, 11.1 µM and 2.61 µM, respectively.

Consider `Cc1cc(-c2c(Cl)cnn2C)cc(C(=O)N[C@H]2CNCC[C@@H]2c2ccccc2)n1` (relative stereo) [Compound 45, 6-methyl-4-(4-chloro-1-methyl-1H-pyrazol-5-yl)-N-(3,4-trans-4-phenylpiperidin-3-yl)pyridinyl-2-formamide], for which the values for the IC50 in assay [1], in assay [2] and in assay [3] were 812 nM, 12.6 µM and 2.01 µM, respectively.

`CC(Cl)c1ccc([C@H]2CCNC[C@@H]2NC(=O)c2cc(Cl)c(-c3ncnn3C)s2)cc1` (stereo partly drawn) [Compound 8, 4-chloro-5-(1-methyl-1H-1,2,4-triazol-5-yl)-N-(3,4-trans-4-(4-(1-chloroethyl)phenyl)piperidin-3-yl)thiophene-2-formamide]: the IC50 in assay [1] was 82 nM; in assay [2] it was 3.26 µM; in assay [3], 9.01 µM.

Take `CCc1sc(C(=O)N[C@H]2CNCC[C@@H]2c2cnc3c(c2)CCC(C)C3)cc1-c1c(C(C)C)cnn1C` (stereo partly drawn) [Compound 14, 5-ethyl-4-(4-isopropyl-1-methyl-1H-pyrazol-5-yl)-N-(3,4-trans-4-(7-methyl-5,6,7,8-tetrahydroquinolin-3-yl)piperidin-3-yl)thiophene-2-formamide]: the 50% inhibitory concentration (IC50) in assay [1] is 5 nM; in assay [2], 3.78 µM; in assay [3], 3.68 µM.
